Assay results from patent US20230084899A1, “COMBINATION OF AN AHR-INHIBITOR AND AN PD1-INHIBITOR ANTIBODY AND ITS USE IN THE TREATMENT OF CANCER” (Bayer Aktiengesellschaft, priority 2019, published 2023).
Entries after “also recorded” stand apart in the source; their conditions may differ.

Legend:
tumor cell proliferation = assay: Anti-proliferative effect of the combination (tumor cell proliferation); assay type: cell-based
[1] = tested on: human T cell/DC co-cultures; assay: Mixed lymphocyte reaction: IL-2 in supernatants of matured DC / T cell co-culture; assay type: cell-based
Method: Whole blood samples from healthy donors were collected and PBMCs were isolated using density gradient centrifugation for 15 min at 800×g at room temperature with Biocoll separation solution (density […]; Biochrom, #L6115). The supernatants were discarded and the PBMCs were poured into 50 ml tubes, washed with PBS without Ca^+/Mg^+, counted and resuspended in MACS separation buffer (Miltenyi Biotec). The monocytes were isolated from PBMCs using the Monocyte Isolation Kit II (Miltenyi Biotec, Cat #130-091-153) according to manufacturer's instructions. On the day of co-culture, T cells were isolated from PBMC preparations obtained from whole blood of different donors using the Pan T Cell Isolation Kit (Auto MACS Pro, Cat #130-096-535).
Monocytes were differentiated into monocyte-derived dendritic cells (moDCs) using 100 ng/ml GM-CSF (R&D Systems, Cat #215-GM) and 100 ng/ml rhIL4 (R&D Systems, Cat #204-IL) for 6 days at 37° C., 5% CO2. To produce mature DCs, moDCs were further matured for 24 h with IFNγ (R&D Systems, Cat #285-IF) and lipopolysaccharide (LPS) from Escherichia coli O127: B8 (Sigma, Cat #L4516).
For the co-culture assay, matured DCs and T cells from different donors were used. The cells were seeded in 96-well plates (Costar, Cat #3585) at 1×10^4 cells/well for matured DCs and 5×10^4 cells/well for T cells. A serial dilution of component A (3× dilution steps) in combination with anti-programmed cell death 1 antibody (as component B: aPD-1; 1 μg/ml pembrolizumab or 3 μg/ml nivolumab) or respective concentrations of hIgG4 (isotype control TPP10747, PPB11084) was added and the cells were incubated for 3 days at 37° C., 5% CO2.
IL-2 cytokine levels were measured in aliquots of supernatants using the Human IL-2 Tissue Culture kit (Meso Scale Discovery, Cat #K151AHB-4).

Structure (SMILES)	inhibiting tumor cell proliferation (tumor cell proliferation; in combination with nivolumab)	anti-proliferative effect / inhibiting tumor cell proliferation (tumor cell proliferation; in combination with pembrolizumab)	T cell activity (observed by IL-2 production) ([1]; alone and in combination with PD1 antibodies)	IL-2 production from T cells ([1]; component A alone (component A+hIgG4 isotype control), serial dilution, 3 days co-culture)	IL-2 levels, combination compared to aPD-1 or component A alone ([1]; component A serial dilution + 1 μg/ml pembrolizumab, 3 days co-culture (FIG. 1))	IL-2 levels, combination compared to aPD-1 or component A alone ([1]; component A serial dilution + 3 μg/ml nivolumab, 3 days co-culture (FIG. 2))
C[C@@H](CO)NC(=O)c1cc(-c2ccc(Cl)cc2)nn(-c2cnn(C)c2)c1=O [6-(4-Chlorophenyl)-N-[(2S)-1-hydroxypropan-2-yl]-2-(1-methyl-1H-pyrazol-4-yl)-3-oxo-2,3-dihydropyridazine-4-carboxamide]	synergistic effects	very strong synergy; also recorded: synergistic effects	–	–	–	–
C[C@@H](CO)NC(=O)c1cc(-c2ccc(Cl)cc2)nn(-c2cnn(C)c2)c1=O [component A, 6-(4-Chlorophenyl)-N-[(2S)-1-hydroxypropan-2-yl]-2-(1-methyl-1H-pyrazol-4-yl)-3-oxo-2,3-dihydropyridazine-4-carboxamide]	–	–	enhances T cell activity	dose-dependent response	higher IL-2 levels	higher IL-2 levels
